Measurements as given in PMC3501490 (PLoS ONE, 2012).
Where no end group is shown, it is not given here. [ ]: non-standard residue; d: D form. pY = N[C@@H](Cc1ccc(OP(=O)(O)O)cc1)C(=O)O

Legend:
[1] = tested on: washed human platelets (CRP); test: Light transmission aggregometry of TAT-peptide-loaded platelets, CRP; format: cell-based; conditions: for effect on EC50 / sensitivity to CRP: washed human platelets, TAT peptide loading
Experimental: (§1) Whole blood was taken from healthy volunteers and collected into 50 ml syringes containing 5 ml acid citrate-dextrose (ACD) in accordance with procedures approved by the Local Research Ethics Committee (Ref: 07/Q1603/17). Platelet-rich plasma (PRP) was isolated by centrifugation at 200 g for 10 minutes at room temperature. PRP was pooled and 10 µg PGI2 was added before centrifugation at 1000 g for 10 minutes at room temperature. Platelets were resuspended in 1 ml Tyrodes buffer (134 mM NaCl, 0.34 mM Na2HPO4, 2.9 mM KCl, 12 mM NaHCO3, 20 mM HEPES, 5 mM glucose, 1 mM MgCl2, pH 7.3) pre-warmed to 30°C and 150 µl ACD. The volume was adjusted to 25 ml with Tyrodes buffer, followed by 3 ml ACD and 1.25 µg PGI2. Cells were centrifuged at 1000 g for 10 minutes at room temperature and the resultant cell pellet was resuspended in 1 ml pre-warmed Tyrodes buffer before adjusting the volume to a final cell density of 4×10^8 cells/ml (aggregations) or 2×10^9 cells/ml (peptide pull downs). Where appropriate, 1 mM EGTA, 10 µM indomethacin and 2 U/ml apyrase were added to inhibit aggregations (referred to as non-aggregating conditions).
(§2) Fluorescein-labelled, TAT-G6B-b peptides were synthesised by Peptide Protein Research Ltd (Hampshire, U.K.). Peptides were either unphosphorylated, or phosphorylated at both ITIMs as follows: Dual phosphorylated peptide – FLUO- […]*[…]*AVVV or unphosphorylated control peptide (lacking tyrosine phosphorylation) - FLUO- […]. TAT sequences are underlined and phosphorylated tyrosines marked with an asterisk. Peptides were loaded into washed platelets by incubation with 10 µM peptide for 15 minutes at 30°C, after which they were assessed by light transmission aggregometry. Peptide loading conditions were optimised and verified by flow cytometry.
(§3) Washed human platelets were loaded with TAT-G6B-b peptides (either dual phosphorylated or unphosphorylated) and changes in CRP efficacy determined by light transmission aggregometry. […] Thrombin-mediated activation was unaffected (data not shown). […] Peptide loading was verified by flow cytometry (Figure 9C and 9D.

[2] = tested on: washed human platelets (thrombin); test: Activation of TAT-peptide-loaded platelets, thrombin; format: cell-based; conditions: platelets loaded with 10 µM peptide, 15 min, 30°C; data not shown
Experimental: Whole blood was taken from healthy volunteers and collected into 50 ml syringes containing 5 ml acid citrate-dextrose (ACD) in accordance with procedures approved by the Local Research Ethics Committee (Ref: 07/Q1603/17). Platelet-rich plasma (PRP) was isolated by centrifugation at 200 g for 10 minutes at room temperature. PRP was pooled and 10 µg PGI2 was added before centrifugation at 1000 g for 10 minutes at room temperature. Platelets were resuspended in 1 ml Tyrodes buffer (134 mM NaCl, 0.34 mM Na2HPO4, 2.9 mM KCl, 12 mM NaHCO3, 20 mM HEPES, 5 mM glucose, 1 mM MgCl2, pH 7.3) pre-warmed to 30°C and 150 µl ACD. The volume was adjusted to 25 ml with Tyrodes buffer, followed by 3 ml ACD and 1.25 µg PGI2. […]
Fluorescein-labelled, TAT-G6B-b peptides were synthesised by Peptide Protein Research Ltd (Hampshire, U.K.). […] Peptides were loaded into washed platelets by incubation with 10 µM peptide for 15 minutes at 30°C, after which they were assessed by light transmission aggregometry. […]
Washed human platelets were loaded with TAT-G6B-b peptides (either dual phosphorylated or unphosphorylated) and changes in CRP efficacy determined by light transmission aggregometry. […]

[3] = tested on: washed human platelets (collagen); test: Light transmission aggregometry of TAT-peptide-loaded platelets, collagen; format: cell-based; conditions: for effect on EC50 / sensitivity to collagen: washed human platelets, TAT peptide loading
Experimental: as §1, §2, §3

[4] = molecular target: T1, N-terminal SH2 domain of SHP-2 (Homo sapiens, UniProt Q06124); test: SPR (BIAcore 3000), single N-terminal SH2 domain of SHP-2; format: binding; conditions: equilibrium binding, single site fitting, HBS pH 7.4, 37°C, 10 µl/min, read-out: KD
T1 construct: SHP-2 (N)SH2 (His-tag) (OMC #3912); His-tag; host or cells: E. coli BL21(DE3)
T1 sequence (Q06124 6-102 limits assumed): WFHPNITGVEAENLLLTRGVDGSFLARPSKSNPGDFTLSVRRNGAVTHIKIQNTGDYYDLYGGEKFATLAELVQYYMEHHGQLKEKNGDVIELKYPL
Experimental: (§4) These proteins were expressed in BL21(DE3) cells (Invitrogen) induced with 1 mM IPTG for 4 hours at 37°C. Bacteria were pelleted and washed in PBS/0.5 M NaCl prior to sonication in PBS/0.5 M NaCl, in the presence of protease inhibitor cocktail (Complete, EDTA-free, Roche). Soluble and insoluble fractions were separated by centrifugation at 30,000 g for 60 minutes. Soluble fractions containing tagged proteins were incubated for 1 hour at 4°C with end-over-end mixing in the presence of washed Ni-Sepharose (GE Lifesceinces, Little Chalfont, U.K.) supplemented with 40 mM imidazole or Amylose resin (NEB, Herts, U.K). Proteins were eluted according to the manufacturer's instructions and purified by size exclusion chromatography on an AKTApurifier (GE Lifesciences, Little Chalfont, U.K).
Experiments were conducted on a BIAcore™ 3000 in HBS buffer (0.01 M HEPES, pH 7.4, containing 0.15 M NaCl, 3 mM EDTA, and 0.005% v/v P-20, GE Life Sciences, Amersham, UK). Streptavidin was coupled to a research grade CM5 chip (GE Life Sciences, Amersham, UK) as previously described, [13]. Protein-peptide interactions were carried out a rate of 10 µl/min at a constant temperature of 37°C to more accurately reflect physiological conditions. Biotinylated peptides were bound to the streptavidin-coated CM5 chips at 37°C to between 25–50 RU [14]. Purified monomeric SH2 domains were passed over the immobilised peptides at a range of concentrations. Anti-phosphotyrosine monoclonal antibody (Sigma, Poole, U.K.) was passed over the chip to saturation at the end of each experiment to verify peptide coverage on the chip. Binding affinities for the single ITIM/ITSM peptides were determined by plotting equilibrium binding measurements (RU) against SH2 domain protein concentration (Origin 8, OriginLab, MA, USA). KD was defined as the concentration of SH2 protein that gave half maximal binding to the peptide. […] KD was determined as Koff/Kon, which were determined using both GraphPad Prism 5.0 (GraphPad, La Jolla, CA, USA) and BIAevaluation Software (GE Life Sciences, Amersham,UK).

[5] = molecular target: T2, SHP-2 tandem (N+C) SH2 domains (Homo sapiens, UniProt Q06124); test: SPR (BIAcore 3000), SHP-2 tandem (N+C) SH2 domains; format: binding; conditions: kinetic (koff/kon), single site model, HBS pH 7.4, 37°C, 50 µl/min, mean, n = 5, SEM
T2 construct: SHP-2 (N+C)SH2 domains (His-tag) (3911); His-tag; host or cells: E. coli BL21(DE3)
T2 sequence (Q06124 1-216 limits assumed): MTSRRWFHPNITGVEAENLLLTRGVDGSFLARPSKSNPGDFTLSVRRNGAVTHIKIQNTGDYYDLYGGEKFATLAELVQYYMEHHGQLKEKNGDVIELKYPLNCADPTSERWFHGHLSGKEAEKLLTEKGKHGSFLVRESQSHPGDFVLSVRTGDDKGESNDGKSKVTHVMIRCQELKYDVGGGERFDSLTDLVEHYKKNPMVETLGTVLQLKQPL
T2 sequence (O95866 182-241 partner limits assumed): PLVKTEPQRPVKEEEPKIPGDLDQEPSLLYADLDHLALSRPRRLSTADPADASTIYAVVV
Experimental: Experiments were conducted on a BIAcore™ 3000 in HBS buffer (0.01 M HEPES, pH 7.4, containing 0.15 M NaCl, 3 mM EDTA, and 0.005% v/v P-20, GE Life Sciences, Amersham, UK). Streptavidin was coupled to a research grade CM5 chip (GE Life Sciences, Amersham, UK) as previously described [12], [13]. Protein-peptide interactions were carried out a rate of 10 µl/min at a constant temperature of 37°C to more accurately reflect physiological conditions. Biotinylated peptides were bound to the streptavidin-coated CM5 chips at 37°C to between 25–50 RU [14]. Purified monomeric SH2 domains were passed over the immobilised peptides at a range of concentrations. Anti-phosphotyrosine monoclonal antibody (Sigma, Poole, U.K.) was passed over the chip to saturation at the end of each experiment to verify peptide coverage on the chip. Binding affinities for the single ITIM/ITSM peptides were determined by plotting equilibrium binding measurements (RU) against SH2 domain protein concentration (Origin 8, OriginLab, MA, USA). […] For the 60-mer peptides, SH2 domains were passed over the chip surface at 50 µl/min. KD was determined as Koff/Kon, which were determined using both GraphPad Prism 5.0 (GraphPad, La Jolla, CA, USA) and BIAevaluation Software (GE Life Sciences, Amersham,UK).
We kinetically determined the binding affinity (KD = koff/kon) by SPR at physiological temperatures.

[6] = molecular target: T3, SHP-1 tandem (N+C) SH2 domains (Homo sapiens, UniProt P29350); test: SPR (BIAcore 3000), SHP-1 tandem (N+C) SH2 domains; format: binding
T3 construct: host or cells: E. coli BL21(DE3)
T3 sequence (P29350 1-213 limits assumed): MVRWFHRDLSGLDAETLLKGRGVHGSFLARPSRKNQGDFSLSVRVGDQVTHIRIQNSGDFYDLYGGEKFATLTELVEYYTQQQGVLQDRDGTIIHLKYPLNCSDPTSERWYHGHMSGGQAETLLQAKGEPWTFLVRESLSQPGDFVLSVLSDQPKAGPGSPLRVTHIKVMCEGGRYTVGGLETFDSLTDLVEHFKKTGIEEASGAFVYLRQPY
T3 sequence (O95866 182-241 partner limits assumed): T2 sequence (O95866 182-241 partner limits assumed)
Experimental: as §4
Experiments were conducted on a BIAcore™ 3000 in HBS buffer (0.01 M HEPES, pH 7.4, containing 0.15 M NaCl, 3 mM EDTA, and 0.005% v/v P-20, GE Life Sciences, Amersham, UK). […] Binding affinities for the single ITIM/ITSM peptides were determined by plotting equilibrium binding measurements (RU) against SH2 domain protein concentration (Origin 8, OriginLab, MA, USA). […] KD was determined as Koff/Kon, which were determined using both GraphPad Prism 5.0 (GraphPad, La Jolla, CA, USA) and BIAevaluation Software (GE Life Sciences, Amersham,UK). […]

Syk = molecular target: T4, Syk (Homo sapiens, UniProt P43405); test: SPR (BIAcore 3000), Syk SH2 domains; format: binding; conditions: HBS pH 7.4, 37°C, n = 3
T4 construct: made in house
Experimental: Experiments were conducted on a BIAcore™ 3000 in HBS buffer (0.01 M HEPES, pH 7.4, containing 0.15 M NaCl, 3 mM EDTA, and 0.005% v/v P-20, GE Life Sciences, Amersham, UK). Streptavidin was coupled to a research grade CM5 chip (GE Life Sciences, Amersham, UK) as previously described, [13]. Protein-peptide interactions were carried out a rate of 10 µl/min at a constant temperature of 37°C to more accurately reflect physiological conditions. Biotinylated peptides were bound to the streptavidin-coated CM5 chips at 37°C to between 25–50 RU [14]. Purified monomeric SH2 domains were passed over the immobilised peptides at a range of concentrations. Anti-phosphotyrosine monoclonal antibody (Sigma, Poole, U.K.) was passed over the chip to saturation at the end of each experiment to verify peptide coverage on the chip. Binding affinities for the single ITIM/ITSM peptides were determined by plotting equilibrium binding measurements (RU) against SH2 domain protein concentration (Origin 8, OriginLab, MA, USA). KD was defined as the concentration of SH2 protein that gave half maximal binding to the peptide. For the 60-mer peptides, SH2 domains were passed over the chip surface at 50 µl/min. KD was determined as Koff/Kon, which were determined using both GraphPad Prism 5.0 (GraphPad, La Jolla, CA, USA) and BIAevaluation Software (GE Life Sciences, Amersham,UK). […]

SHP-1 = test: Peptide pull down from platelet lysate, SHP-1; format: binding; conditions: human platelet lysate, Western blotting; 4°C, 30 min; n = 3
Experimental: (§5) Forty micrograms of peptide were coupled to 50 µl of Streptactin beads (50% slurry) for 30 minutes at 4°C with end-over-end mixing, washed twice with 1 ml PBS and resuspended in 100 µl of modified Tyrodes buffer. Platelets were resuspended in modified Tyrodes buffer at a concentration of 2×10^9 cells/ml under non-aggregating conditions (10 µM indomethacin, 1 mM EGTA and 2 U/ml apyrase). Cells were activated with 1 ug/ml CRP for 90 seconds under stirring, but non-aggregating conditions, before reactions were terminated by the addition of 500 µl 2× NP40 lysis buffer (150 mM NaCl, 10 mM Tris pH 7.5, 1 mM EGTA, 1 mM EDTA, 1% NP-40) with inhibitors (Roche Complete mini protease inhibitor cocktail, 5 mM NaF, 5 mM NaVO4, 250 nM beta-glycerophosphate) and placed on ice. Lysates were pooled and pre-cleared as a batch with 200 µl streptactin beads (50% slurry). Non-specific interactions were then removed by centrifugation at 4,750 g for 15 minutes at 4°C. Pre-cleared lysates were incubated with 50 µl peptide/bead conjugate (50% slurry) at 4°C for 30 minutes with end-over-end mixing. […]
(§6) Although likely that these interactions are direct, this has not yet been conclusively shown. […] Peptide associated material was separated by SDS-PAGE and assessed for the presence of SHP-1 and SHP-2 by Western blotting, both of which were clearly identified (Figure 1C).

SHP-2 = test: Peptide pull down from platelet lysate, SHP-2; format: binding; conditions: human platelet lysate, Western blotting; 4°C, 30 min; n = 3
Experimental: as §5, §6

[7] = 10 µM peptide, 15 min, 30°C, vs vehicle control
[8] = listed as G6B-b dual phosphorylated peptide

Substance: FLUO- GRKKRRQRRRPQDLDQEPSLLY*ADLDHLALSRPRRLSTADPADASTIY*AVVV [dual phosphorylated G6B-b TAT-peptide, Fluorescein-labelled TAT-G6B-b peptide phosphorylated at both ITIMs]
- fold increase in EC50 of CRP [1, 7]: ~1.65 fold
- effect on EC50 / sensitivity to CRP [1]: can reduce the EC50 for both CRP and collagen
- effect on EC50 / sensitivity to CRP [1, 8]: reduces platelet sensitivity to GPVI agonists
- thrombin-mediated activation [2]: unaffected
- fold increase in EC50 of collagen [3, 7]: 2.5 fold
- effect on EC50 / sensitivity to collagen [3]: can reduce the EC50 for both CRP and collagen
- effect on EC50 / sensitivity to collagen [3, 8]: reduces platelet sensitivity to GPVI agonists

Substance: PLVKTEPQRPVKEEEPKIPGDLDQEPSLL[pY]ADLDHLALSRPRRLSTADPADASTI[pY]AVVV [dual phosphopeptide]
- Kd [4]: 130 nM
- Kd [5]: 0.48 ± 0.09 nM
- Koff ([6]; 37°C, dual peptide, read-out: Koff (dissociation rate)): 0.01 s⁻¹
- Kd ([6]; kinetic (koff/kon), single site model, HBS pH 7.4, 37°C, 50 µl/min, mean, n = 5, SEM, read-out: binding affinity (KD)): 35.3 ± 4.3 nM
- Kd (Syk): ~25000 nM

Substance: unphosphorylated control peptides: biotinylated 60-mer G6B-b peptide (182 to 241), unphosphorylated (PLVKTEPQRPVKEEEPKIPGDLDQEPSLLYADLDHLALSRPRRLSTADPADASTIYAVVV; also: biotinylated (end not given here))
- association (SHP-1): No SHP-1 or SHP-2 bound
- association (SHP-2): No SHP-1 or SHP-2 bound
